Like-named read-outs stand apart in the source and are kept apart here.
Assays:
[1] = tested on: L. major promastigotes; experiment: L. major promastigote drug susceptibility assay (alamar blue, 384-well); type: cell-based, Leishmania major; details: for primary hit (≥50% inhibition of signal readout): single concentration 10 µM, LOPAC, UP-CMLD DP validation set or PMLSC library
Procedure: Promastigotes were grown in vented T75 tissue culture flasks and maintained at 28°C. Promastigote cultures were initiated at 10^5 parasites per mL and subcultured every 3–4 days. L. major promastigote counts were performed in duplicate using a hemocytometer and particle counter (Beckman Coulter, Fullerton, CA). For HTS assays, L. major promastigote cultures were harvested during exponential growth phase (∼2.0–3.0×10^7 parasites/mL) and were not maintained past passage 20.
The final test compound concentration was 10 µM with a constant DMSO concentration of 1% in each assay well.
The L. major promastigote drug susceptibility assay was performed in a final volume of 25 µL using our previously described 384-well microtiter plate format,[39]. For automated HTS procedures, L. major promastigotes (5,000 parasites/22 µL) in complete growth medium were seeded into each well of the microtiter plates using a MAPC2 bulk dispenser (Titertek, Huntsville, AL). Test and control compounds (3 µL) were added to individual wells using a Velocity 11 V-prep (Menlo Park, CA) liquid handling system, equipped with a 384-well dispensing head, followed by centrifugation at 50 g for 1 min. […] Assay plates were allowed to incubate for 44 h at 28°C in the presence of 5% CO2. Five µL of alamar blue reagent were added to each assay plate well and incubated for 4 h at 28°C with 5% CO2. Data were captured on a Molecular Devices SpectraMax M5 (excitation560; emission590). Individual assay plate Z-factors were derived from the vehicle and positive controls, and data from plates were used only if Z-factors were >0.5 [50].
The assays were performed in duplicate with a final 10-point concentration range spanning 0.01–5.00 µM.

[2] = tested on: A549; experiment: Mammalian cell line specificity assay (alamar blue); type: cell-based, human; details: Table S1; PMLSC library samples; read-out: EC50 Ave ± SD, A549
Procedure: Mammalian cells were cultured and maintained according to ATCC specifications (ATCC, Manassas, VA). Cell line drug susceptibility assays were performed in final volumes of 25 µL using our previously described 384-well microtiter plate format,[39]. […] Test and control compounds were added to individual wells as described above. Vehicle and positive controls were 1% DMSO and 10% DMSO, respectively (final well concentrations). Assay plates were incubated for 44–46 h at 37°C in the presence of 5% CO2 and growth inhibitory effects were determined as described above. Five µL of alamar blue reagent was added to each well and incubated for 2–4 h. Data were captured as described above.

[3] = Table S1, PMLSC library samples, 10-point 0.01–5.00 µM, read-out: EC50 Ave ± SD, Lm
[4] = Leishmania major, assay optimization, 384-well format, read-out: EC50, L. major promastigotes, known leishmanicidals

Row | Molecule | EC50 [1, 3] [nM] | EC50 [2] [µM] | primary hit (≥50% inhibition of signal readout) [1] | EC50 [1, 4] [nM] | EC50 ([1]; assay optimization, 384-well format, read-out: EC50, L. major promastigotes, known leishmanicidals) [nM]
1 | CN(C)C(=S)SSC(=S)N(C)C [CID 5455] | 98 ± 12 | 0.75 ± 0.002 | – | – | –
2 | Nc1cccc2nc3ccccc3cc12 [CID 11352] | 635 ± 26 | 4.7 ± 0.311 | – | – | –
3 | Nc1nsc2ccccc12 [CID 89966] | 392 ± 40 | > 5 | – | – | –
4 | O=[N+]([O-])c1cc(-c2nnc(C34CC5CC(CC(C5)C3)C4)o2)cc([N+](=O)[O-])c1 [CID 380438] | 117 ± 22 | > 5 | – | – | –
5 | CN(C)C(=O)c1ccc[n+](CC(=O)Nc2ccc(Cl)cc2)c1 [CID 422270] | 289 ± 44 | 2.92 ± 0.32 | – | – | –
6 | Cc1nc2c(=O)n(C)c(=O)nc-2n(C)n1 [CID 460747] | 202 ± 11 | 0.158 ± 0.018 | – | – | –
7 | COc1ccc2cc3[n+](cc2c1OC)CCc1cc2c(cc1-3)OCO2 [CID 629413] | 379 ± 77 | > 5 | – | – | –
8 | COc1ccc2c3c(cccc13)NN=C2C [CID 644992] | 255 ± 21 | > 5 | – | – | –
9 | Cc1nnc(Nc2ccccn2)c2ccccc12 [CID 645317] | 723 ± 24 | > 5 | – | – | –
10 | [O-][N+]1=c2ccc(Nc3ccccc3)cc2=NC12CCCCC2 [CID 657546] | 845 ± 136 | > 5 | – | – | –
11 | Cc1c(Cl)sn(-c2ccc(Cl)cc2)c1=O [CID 759209] | 545 ± 118 | 2.58 ± 0.185 | – | – | –
12 | COc1ccc(S(=O)(=O)Nc2ccc(O)c3ccccc23)cc1 [CID 871185] | 287 ± 145 | > 5 | – | – | –
13 | O=C(Nc1ccc(Cl)cn1)c1ccc([N+](=O)[O-])o1 [CID 952234] | 205 ± 21 | 4.08 ± 0.352 | – | – | –
14 | O=c1c(Cl)nc2cc(Cl)ccc2n1CCNc1ncc(C(F)(F)F)cc1Cl [CID 1471937] | 513 ± 52 | 4.31 ± 0.54 | – | – | –
15 | COc1ccc(NC(=O)/C(Cl)=C(/Cl)[S+]([O-])Cc2ccccc2Cl)cn1 (stereo not shown) [CID 1475345] | 242 ± 29 | 0.955 ± 0.025 | – | – | –
16 | Cc1cc(C(=O)CCl)c(C)n1Cc1ccco1 [CID 1537038] | 784 ± 36 | > 5 | – | – | –
17 | CCOC(=O)c1c2c(n(C)c1C)C(=O)C(=O)c1ccc(Br)cc1-2 [CID 1736381] | 87 ± 21 | 0.613 ± 0.109 | – | – | –
18 | CCOC(=O)C(=Cc1cc(=O)c(OC)co1)C(=O)OCC [CID 1811924] | 166 ± 9 | > 5 | – | – | –
19 | COc1ccccc1-n1cnc2c(c1=O)c1nc3ccccc3nc1n2-c1ccc(C)c(C)c1 [CID 1987332] | 85 ± 5 | > 5 | – | – | –
20 | Fc1cccc(-c2nnn3c2nc(Cl)c2ccccc23)c1 [CID 2137463] | 499 ± 135 | > 5 | – | – | –
21 | O=S(=O)(CCSc1nc2ccccc2s1)c1nc2ccccc2s1 [CID 2194030] | 718 ± 86 | > 5 | – | – | –
22 | CC(C)(C)c1ccc(-n2nc(C#N)c(Cl)cc2=O)cc1 [CID 2766929] | 767 ± 160 | 3.55 ± 0.582 | – | – | –
23 | CCCCCCCCCCCCCCCCn1cc[n+](C)c1 [CID 2846928] | 35 ± 1 | 1.64 ± 0.059 | – | – | –
24 | CCCOC(=O)CSC1=C(C#N)C(c2ccccc2Cl)CC(=O)N1 (stereo not shown) [CID 2855568] | 122 ± 12 | > 5 | – | – | –
25 | CCc1ccc(NSc2ccccc2[N+](=O)[O-])cc1 [CID 2856077] | 751 ± 110 | > 5 | – | – | –
26 | COCCCNCCCCOc1ccc(Br)cc1Cl [CID 2923184] | 60 ± 0.1 | > 5 | – | – | –

Row | Molecule | EC50 [1, 3] [nM] | EC50 [2] [µM] | primary hit (≥50% inhibition of signal readout) [1] | EC50 [1, 4] [nM] | EC50 ([1]; assay optimization, 384-well format, read-out: EC50, L. major promastigotes, known leishmanicidals) [nM]
27 | O=C1CC(c2ccccc2Br)c2cc3c(cc2N1)CCC3 (stereo not shown) [CID 2937831] | 255 ± 48 | > 5 | – | – | –
28 | COc1cc(CNCc2cccs2)ccc1OCc1ccccc1 [CID 2964134] | 164 ± 42 | > 5 | – | – | –
29 | COc1ccc(C2=NCC(CSc3nnc(-c4ccc5c(c4)OCO5)o3)S2)cc1 (stereo not shown) [CID 2999476] | 187 ± 26 | > 5 | – | – | –
30 | O=[N+]([O-])c1ccc(NNC(=S)Nc2ccc(F)cc2)cc1 [CID 3127155] | 452 ± 74 | > 5 | – | – | –
31 | CCCc1nc2c(=O)n(C)c(=O)nc-2n(C)n1 [CID 3164059] | 218 ± 54 | 1.06 ± 0.156 | – | – | –
32 | COC(=O)c1cc2ccsc2n1Cc1nc(-c2ccc(OC)cc2)oc1C [CID 3236501] | 105 ± 10 | > 5 | – | – | –
33 | COC(=O)CNc1nc(-c2ccccc2F)nc2ccccc12 [CID 3237155] | 743 ± 62 | > 5 | – | – | –
34 | O=C(NCC(c1cccnc1)N1CCN(c2ccc(F)cc2)CC1)Oc1ccccc1 (stereo not shown) [CID 3242548] | 111 ± 10 | > 5 | – | – | –
35 | CCC(C)(c1nnnn1-c1c(C)cccc1C)N(N=O)c1ccccc1Cl (stereo not shown) [CID 3521510] | 326 ± 40 | > 5 | – | – | –
36 | N#CC(c1ccc(Cl)cc1)c1ccc2c(C(F)(F)F)cc(C(F)(F)F)nc2n1 (stereo not shown) [CID 3564202] | 565 ± 35 | 2.11 ± 0.077 | – | – | –
37 | COC(=O)C1CN(C#N)N(c2ccc(Cl)cc2)C12c1ccccc1-c1ccccc12 (stereo not shown) [CID 3609942] | 73 ± 13 | 2.75 ± 0.073 | – | – | –
38 | CN(C)c1cc(NN=Cc2ccc(Cl)cc2)nc(N(C)C)n1 [CID 3769434] | 504 ± 66 | > 5 | – | – | –
39 | Cc1ccccc1-n1ncc2c([N+](=O)[O-])cc([N+](=O)[O-])cc21 [CID 3932660] | 61 ± 4 | > 5 | – | – | –
40 | O=C(c1cccnc1)N(c1cc2sc(=O)oc2c2ccccc12)S(=O)(=O)c1ccccc1 [CID 3980962] | 192 ± 2 | > 5 | – | – | –
41 | Clc1ccccc1C(c1ccccc1)(c1ccccc1)n1ccnc1 [Clotrimazole, reference compound] | – | – | primary hits | – | –
42 | COc1ccc2cc3[n+](cc2c1OC)CCc1cc2c(cc1-3)OCO2 [berberine, reference compound] | – | – | primary hits | – | –
43 | CC(=O)N1CCN(c2ccc(OCC3COC(Cn4ccnc4)(c4ccc(Cl)cc4Cl)O3)cc2)CC1 (stereo not shown) [ketoconazole, reference compound] | – | – | primary hits | – | –
44 | COc1c(C)c2c(c(O)c1C/C=C(\C)CCC(=O)O)C(=O)OC2 [mycophenolic acid, reference compound] | – | – | primary hits | – | –
45 | O=C(Nc1ccc([N+](=O)[O-])cc1Cl)c1cc(Cl)ccc1O [niclosamide, reference compound] | – | – | primary hits | – | –
46 | NC[C@@H]1O[C@H](O[C@H]2[C@@H](O)[C@H](O[C@@H]3[C@@H](O)[C@H](N)C[C@H](N)[C@H]3O[C@H]3O[C@H](CO)[C@@H](O)[C@H](O)[C@H]3N)O[C@@H]2CO)[C@H](N)[C@@H](O)[C@@H]1O [paromomycin, reference compound] | – | – | – | 19700 ± 600 | –
47 | N=C(N)c1ccc(OCCCCCOc2ccc(C(=N)N)cc2)cc1 [pentamidine, reference compound] | – | – | – | 360 ± 20 | –
48 | CCN(CC)CCCC(C)Nc1c2ccc(Cl)cc2nc2ccc(OC)cc12 (stereo not shown) [quinacrine, reference compound] | – | – | primary hits | – | –
49 | O=C(O)[C@@H]1[O][Sb](=[O])([O][Sb]2(=[O])[O][C@H]([C@H](O)CO)[C@H](O)[C@H](C(=O)O)[O]2)[O][C@H]([C@H](O)CO)[C@@H]1O.[Na+].[Na+].[Na+] (stereo partly shown) [sodium stibogluconate, reference compound] | – | – | – | – | > 100000
50 | CC/C(=C(\c1ccccc1)c1ccc(OCCN(C)C)cc1)c1ccccc1 [tamoxifen, reference compound] | – | – | primary hits | – | –
51 | ivermectin [reference compound] | – | – | primary hits | – | –

From article PMC2765639 (PLoS Neglected Tropical Diseases, 2009)
